From patent publication US20080145313A1, “Compositions and Methods for the Treatment and Prevention of Neoplastic Disorders” (Genesis Research & Development Corporation Limited, priority 2006, published 2008)

These substances were tested on A549 cells (assay: Growth inhibition of siRNA-transfected A549 cells, SYBR Green I DNA content). Settings: 10 nM siRNA; DNA content 96 hours after transfection.
Format: cell-based, human
Method in brief: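 A549 cells reverse-transfected with 10 nM Stealth siRNAs via Lipofectamine RNAiMAX, seeded at 5×10^3 cells/cm^2 in RPMI 1640/10% FCS; non-specific siRNA control. DNA content read 96 h post-transfection by SYBR Green I fluorescence (ex 485/em 535 nm) after freeze-thaw and Triton X-100 lysis; mean of three wells.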

Q: How did the “Growth Inhibition in A549 cells” value turn out when “SEQ ID NO: 4872: siRNA targeting RRM2B (chain 1 TTTGACAGCATCAACAATGATCTCC; chain 2 UUUGACAGCAUCAACAAUGAUCUCC; Both strands are one antisense strand in DNA/RNA notation, chemistry not given here, further chemistry not given here; one strand in two spellings)” was run?
A: − (no growth inhibition with any siRNA)

Q: With “SEQ ID NO: 4873: siRNA targeting RRM2B (chain 1 TTTACTAAGTATTGGAACATCAGGC; chain 2 UUUACUAAGUAUUGGAACAUCAGGC; Both strands are one antisense strand in DNA/RNA notation, chemistry not given here, further chemistry not given here; one strand in two spellings)” as the substance, how does the “Growth Inhibition in A549 cells” value read?
A: − (no growth inhibition with any siRNA)

Q: With “SEQ ID NO: 4874: siRNA targeting RRM2B (chain 1 TATCTGTGGTTTCTGCCATAACTGC; chain 2 UAUCUGUGGUUUCUGCCAUAACUGC; Both strands are one antisense strand in DNA/RNA notation, chemistry not given here, further chemistry not given here; one strand in two spellings)” as the substance, how does the “Growth Inhibition in A549 cells” value read?
A: − (no growth inhibition with any siRNA)

Q: With “SEQ ID NO: 4875: siRNA targeting CTPS (chain 1 AATAACACACACTTGAGGTTCCAGG; chain 2 AAUAACACACACUUGAGGUUCCAGG; Both strands are one antisense strand in DNA/RNA notation, chemistry not given here, further chemistry not given here; one strand in two spellings)” as the substance, how does the “Growth Inhibition in A549 cells” value read?
A: ++ (inhibits by at least 75%)

Q: How did the “Growth Inhibition in A549 cells” value turn out when “SEQ ID NO: 4876: siRNA targeting CTPS (chain 1 ATAAAGGGCATGCTTTCTATGTCCC; chain 2 AUAAAGGGCAUGCUUUCUAUGUCCC; Both strands are one antisense strand in DNA/RNA notation, chemistry not given here, further chemistry not given here; one strand in two spellings)” was run?
A: − (no growth inhibition with any siRNA)

Q: How did the “Growth Inhibition in A549 cells” value turn out when “SEQ ID NO: 4877: siRNA targeting CTPS (chain 1 AGCACCTGCATACAACCAGATCTGG; chain 2 AGCACCUGCAUACAACCAGAUCUGG; Both strands are one antisense strand in DNA/RNA notation, chemistry not given here, further chemistry not given here; one strand in two spellings)” was run?
A: + (inhibits by at least 50%)

Q: Which “Growth Inhibition in A549 cells” value does the source give for “SEQ ID NO: 4878: siRNA targeting IMPDH2 (chain 1 AAATTTGTGGATTGACCCTTTGTCC; chain 2 AAAUUUGUGGAUUGACCCUUUGUCC; Both strands are one antisense strand in DNA/RNA notation, chemistry not given here, further chemistry not given here; one strand in two spellings)” here?
A: − (no growth inhibition with any siRNA)

Q: Which “Growth Inhibition in A549 cells” value does the source give for “SEQ ID NO: 4880: siRNA targeting IMPDH2 (chain 1 TCCCTGTTCATATTTCTTCACTTTC; chain 2 UCCCUGUUCAUAUUUCUUCACUUUC; Both strands are one antisense strand in DNA/RNA notation, chemistry not given here, further chemistry not given here; one strand in two spellings)” here?
A: + (inhibits by at least 50%)

Same assay, conditions: 10 nM siRNA; up to 120 hours post-transfection (FIG. 8)

Q: How did the “growth inhibition, A549” value turn out when “SEQ ID NO: 4872: siRNA targeting RRM2B (chain 1 TTTGACAGCATCAACAATGATCTCC; chain 2 UUUGACAGCAUCAACAAUGAUCUCC; Both strands are one antisense strand in DNA/RNA notation, chemistry not given here, further chemistry not given here; one strand in two spellings)” was run?
A: No inhibition of growth

Q: Which “growth inhibition, A549” value does the source give for “SEQ ID NO: 4873: siRNA targeting RRM2B (chain 1 TTTACTAAGTATTGGAACATCAGGC; chain 2 UUUACUAAGUAUUGGAACAUCAGGC; Both strands are one antisense strand in DNA/RNA notation, chemistry not given here, further chemistry not given here; one strand in two spellings)” here?
A: No inhibition of growth

Same assay, conditions: A549 cells, 10 nM siRNA, DNA content 96 hours after transfection, transporter gene targets

Q: With “SEQ ID NO: 4940: siRNA targeting ATP2B2 (PMCA2) (chain 1 TTCTTGTGCATGCTGGCCTTCTTCC; chain 2 UUCUUGUGCAUGCUGGCCUUCUUCC; chemistry not given here; one strand in two spellings)” as the substance, how does the “Growth Inhibition in A549 cells by 10 nM siRNA” value read?
A: ++ (inhibits by at least 75%)

Q: For “SEQ ID NO: 4941: siRNA targeting ATP2B2 (PMCA2) (chain 1 ATCTGTGTCTGGATCCGATTCAGGC; chain 2 AUCUGUGUCUGGAUCCGAUUCAGGC; chemistry not given here; one strand in two spellings)”, which “Growth Inhibition in A549 cells by 10 nM siRNA” value is on record?
A: + (inhibits by at least 50%)

Q: With “SEQ ID NO: 4942: siRNA targeting ATP2B2 (PMCA2) (chain 1 TTCCAGGTCGGTGTCATCAATGAGG; chain 2 UUCCAGGUCGGUGUCAUCAAUGAGG; chemistry not given here; one strand in two spellings)” as the substance, how does the “Growth Inhibition in A549 cells by 10 nM siRNA” value read?
A: − (no growth inhibition)

Q: With “SEQ ID NO: 4943: siRNA targeting ATP2B3 (PMCA3) (chain 1 AAACGTCTCAATCACAAAGTAGAGG; chain 2 AAACGUCUCAAUCACAAAGUAGAGG; chemistry not given here; one strand in two spellings)” as the substance, how does the “Growth Inhibition in A549 cells by 10 nM siRNA” value read?
A: − (no growth inhibition)

Q: How did the “Growth Inhibition in A549 cells by 10 nM siRNA” value turn out when “SEQ ID NO: 4944: siRNA targeting ATP2B3 (PMCA3) (chain 1 AAAGCTTGTCTTCCGGGATCTGCTC; chain 2 AAAGCUUGUCUUCCGGGAUCUGCUC; chemistry not given here; one strand in two spellings)” was run?
A: − (no growth inhibition)

Q: For “SEQ ID NO: 4945: siRNA targeting ATP2B3 (PMCA3) (chain 1 AATGTGTCCATGATCAAGTTCACCC; chain 2 AAUGUGUCCAUGAUCAAGUUCACCC; chemistry not given here; one strand in two spellings)”, which “Growth Inhibition in A549 cells by 10 nM siRNA” value is on record?
A: + (inhibits by at least 50%)

Q: How did the “Growth Inhibition in A549 cells by 10 nM siRNA” value turn out when “SEQ ID NO: 4949: siRNA targeting ATP6V1A (chain 1 TATAAATAGAGGCTTCTCTAGCAGC; chain 2 UAUAAAUAGAGGCUUCUCUAGCAGC; chemistry not given here; one strand in two spellings)” was run?
A: − (no growth inhibition)

Q: How did the “Growth Inhibition in A549 cells by 10 nM siRNA” value turn out when “SEQ ID NO: 4950: siRNA targeting ATP6V1A (chain 1 TTTCATGGAGGAAAGTTTATAGAGG; chain 2 UUUCAUGGAGGAAAGUUUAUAGAGG; chemistry not given here; one strand in two spellings)” was run?
A: − (no growth inhibition)

Q: How did the “Growth Inhibition in A549 cells by 10 nM siRNA” value turn out when “SEQ ID NO: 4951: siRNA targeting ATP6V1A (chain 1 AAATGGCTCCCATAATGCCAGGACC; chain 2 AAAUGGCUCCCAUAAUGCCAGGACC; chemistry not given here; one strand in two spellings)” was run?
A: + (inhibits by at least 50%)

Q: Which “Growth Inhibition in A549 cells by 10 nM siRNA” value does the source give for “SEQ ID NO: 4979: siRNA targeting ABCB1 (MDR1) (chain 1 TAATTATTCCTGTCCCAAGATTTGC; chain 2 UAAUUAUUCCUGUCCCAAGAUUUGC; chemistry not given here; one strand in two spellings)” here?
A: − (no growth inhibition)

Q: Which “Growth Inhibition in A549 cells by 10 nM siRNA” value does the source give for “SEQ ID NO: 4980: siRNA targeting ABCB1 (MDR1) (chain 1 TTCACCAAATGTGACATTTCCTTCC; chain 2 UUCACCAAAUGUGACAUUUCCUUCC; chemistry not given here; one strand in two spellings)” here?
A: − (no growth inhibition)
